In patent US5840721A, “Imidazole derivatives as MDR modulators” (Ontogen Corporation, priority 1997, dated 1998) one finds EC50 data, which are given here for nine compounds.

The test system of assay [1] is CEM/VLB1000 cell line. Put plainly: Cytotoxicity potentiation: enhancement of vinblastine cytotoxicity in MDR cell line (alamar blue). The conditions noted are these: Homo sapiens, midpoint of minimum and maximum cytotoxicity induced by 3-5 μg/mL vinblastine and compound, 48 hours incubation, alamar blue 24 hours, read-out: Cytotocicity Potentiation (EC50). The class given is cell-based, human.

Assay [2] relates to CEM/VLB1000 cell line. As to the kind of experiment: [3H]VLB accumulation in CEM/VLB1000 cells. The conditions noted are these: Homo sapiens, midpoint of minimum and maximum increase in accumulation of 3H-vinblastine (275 nM), 3 hours at 37° C. The class given is cell-based. The protocol:
^3 H-vinblastine accumulation was also measured in the CEM/VLB1000 cell line. Corning Easy-Wash 96 well plates were pretreated with PBS and 1% BSA for 60 minutes and then removed. CEM/VLB1000 cells were seeded at 2×10^5, 40 μL volume. Plates were incubated at 37° C. for 30-60 minutes prior to use. The reference reversing agent, verapamil, or the compound of the present invention was added to the well followed by addition of media containing ^3 H-vinblastine (final concentration=275nM). Plates were allowed to incubate for 3 hours at 37° C. Cells were harvested onto pretreated Wallace filtermats A (pretreated with 0.1% polyethyleneimine) using a TomTek harvester-96. After filtering, the filtermats were allowed to dry completely. Meltix B scintillant was then added to the filtermats. The filters were then placed in a 90° C. oven for approximately 3-5 minutes and then removed. Scintillant was allowed to solidify on the filtermats. Filtermats were then placed in sample bags and read on a Wallace BetaPlate scintillation counter. The effects of compounds of the present invention in the cytotoxicity potentiation assays and vinblastine (VLB) accumulation assay are given in the Table below:
^2 Values presented are the midpoint (EC50 ) of the minimum and
maximum increase in accumulation of ^3 Hvinblastine caused by the
specfic compound of the present invention.

Take `COC/C=C/c1ccc(-c2nc(-c3ccc(N(C)C)cc3)c(-c3ccc(N(C)C)cc3)[nH]2)cc1` [Example 74, 2-[4-(3-methoxy-trans-1-propen-1-yl)phenyl]-4,5-bis (4-N,N-dimnethylaminophenyl) imidazole]: the EC50 was found to be 130 nM in assay [1] and 2000 nM in assay [2]. Taken in the same sequence, the figures for `CCOC/C=C/c1ccc(-c2nc(-c3ccc(N(C)C)cc3)c(-c3ccc(N(C)C)cc3)[nH]2)cc1` [Example 75, 2-[4-(3-ethoxy-trans-1-propen-1-yl)phenyl]-4,5-bis (4-N,N-dimethylaminophenyl) imidazole] were 98 nM and 1200 nM. Take `CN(C)c1ccc(-c2nc(-c3ccc(/C=C/COCc4ccccc4)cc3)[nH]c2-c2ccc(N(C)C)cc2)cc1` [Example 77, 2-[4-(3-benzyloxy-trans-1-propen-1-yl)phenyl]-4,5-bis (4-N,N-dimethylaminophenyl) imidazole]: the EC50 worked out at 340 nM in assay [1] and 1200 nM in assay [2]. Taken in the same sequence, the figures for `CN(C)C(=O)/C=C/c1ccc(-c2nc(-c3ccc(N(C)C)cc3)c(-c3ccc(N(C)C)cc3)[nH]2)cc1` [Example 111] were 620 nM and 1700 nM. As for `CN(C)c1ccc(-c2nc(-c3ccc(/C=C/CO)cc3)[nH]c2-c2ccc(N(C)C)cc2)cc1` [Example 113, 2-[4-(3-hydroxy-trans-1-propen-1-yl)phenyl]-4,5-bis (4-N,N-dimethylaminophenyl) imidazole], the half-maximal effective concentration (EC50) stood at 410 nM in assay [1] and 3900 nM in assay [2]. For `CCOC/C=C/c1ccc(-c2nc(-c3ccc(NCC(C)C)cc3)c[nH]2)cc1` [Example 124, 2-[4-(3-ethoxy-trans-1-propen-1-yl)phenyl]-4-(4-N-isobutylphenyl) imidazole], the EC50 in assay [1] is 250 nM. `CCOC/C=C/c1ccc(-c2nc(-c3ccc(N4CCOCC4)cc3)c[nH]2)cc1` [Example 125, 2-[4-(3-ethoxy-trans-1-propen-1-yl)phenyl]-4-(4-N-morpholinophenyl) imidazole]: the EC50 in assay [1] is 370 nM. Same read-out and setting: in the case of `CCOC/C=C/c1ccc(-c2nc(-c3ccc(N4CCN(CC)CC4)cc3)c[nH]2)cc1` [Example 126, 2-[4-(3-ethoxy-trans-1-propen-1-yl)phenyl]-4-[4-N-(N'-ethyl)piperizanophenyl) imidazole] it was 710 nM; in that of `CCOC/C=C/c1ccc(-c2nc(-c3ccc(N4CCOCC4)cc3)c(C)[nH]2)cc1` [Example 127, 2-[4-(3-ethoxy-trans-1-propen-1-yl)phenyl]-4-(4-N-morpholinophenyl)-5methyl-imidazole], 330 nM.
